Results: patent US6960610B2, “Use of glycogen phosphorylase inhibitors for treatment of cardiovascular diseases” (Novo Nordick, A/S, priority 2002, dated 2005)

How the values were obtained:
heart tissue glycogen = assay: Glycogen content of heart tissue following global ischemia; settings: in the presence of 0.4 μg/ml compound
Method: Method: The glycogen contents of freeze-clamped heart samples were determined enzymatically as μmol of glycosyl units per gram wet weight after boiling the tissue in 0.4 N KOH and subsequent degradation of glycogen with amyloglycosidase

[1] = test system: Rabbits (myocardial infarct); assay: Anaesthetised rabbit model of myocardial infarction induced by transient coronary artery occlusion; type: in vivo; settings: 10 mg/kg b.i.d.; left coronary artery ligated 30 min, reperfusion 2 hours
Method: Method: Rabbits were anaesthetized and mechanically ventilated with oxygen enriched air. A thoracotomy was performed and an infarct was produced by ligating the left coronary artery for 30 min. After 30 min. the heart was reperfused for 2 hours. The heart was excited and reperfused in Langendorff mode. The coronary artery was reoccluded and the heart was perfused with ink to delineate the area at risk. The heart was removed and cut into 2 mm slices and stained with triphenyl tetrazolium chloride. The area at risk and the infarct size was determined by planimetry.

[2] = test system: isolated perfused rabbit hearts; assay: Ischemia induced arrhythmia in the isolated perfused rabbit heart (Langendorff); settings: 0.4 μg/ml, n=7
Method: The model evaluates the effect of a test compound on ischemia induced arrhythmia in isolated perfused rabbit hearts. The hearts were excised from rabbits and perfused via an aortic canula in a Langendorff set-up equipped with ECG and MAP electrodes. Global normotherm ischemia was induced by turning off the perfusion for 30 min. After 30 min the heart was reperfused and the total duration of arrhythmia was determined. Furthermore, ECG and surface monophasic action potentials (MAPS) were scored to describe the severity of ischemic damage.

Compound: OC[C@H]1NC[C@@H](O)[C@@H]1O [(2R,3R,4R)-3,4dihydroxy-2-hydroxymethylpyrrolidine]
- glycogen content before ischemia (heart tissue glycogen; starting value): 16.9±1.5 glycosyl units/g wet weight
- glycogen content after 30 min. of global ischemia (heart tissue glycogen; without compound 2.6±0.8): 6.9±1.1 glycosyl units/g wet weight
- reduction of infarct size compared to untreated rabbits [1]: 45%
- MAP score ([2]; 30 min global ischemia, reperfusion, without compound 2.3±0.3): 0.9±0.1
- ECG score ([2]; 30 min global ischemia, reperfusion, without compound 2.4±0.2): 0.7±0.3
- average arrhythmia length following reperfusion ([2]; 30 min global normotherm ischemia, then reperfusion, without compound 18.0±5.6): 0.0 ± 0.0 min
